The source made the active and inactive calls. The rule behind the calls is not given here.
How the values were obtained:
[1] = Toxicity in Sprague-Dawley rat liver assessed as change in central veins at 10 to 100 mg/kg, po administered once daily for 14 days; format: organism-based; settings: in vivo, 336 h, dose 10-100 mg/kg, time 14 day
[2] = Metabolic stability in rat liver microsome assessed as intrinsic clearance at 1 uM measured upto 60 mins in presence of NADPH by LC-MS/MS analysis; format: ADME; settings: liver microsomes, read-out: CLH
[3] = Metabolic stability in human liver microsome assessed as half life at 1 uM measured upto 60 mins in presence of NADPH by LC-MS/MS analysis; format: ADME; settings: liver microsomes
[4] = Tmax in male Sprague-Dawley rat at 2 mg/kg, po administered as single dose measured after 4 hrs; format: ADME, organism-based; settings: in vivo
Rattus norvegicus [5] = test: Induction of growth hormone level in Juvenile Sprague-Dawley rat blood at 0.2 mg/kg, po administered as single dose measured after 4 hrs by ELISA method (reference value: 32.5+/-4.5 ng/mL); format: functional
[6] = Half life in male dog at 0.5 mg/kg, iv administered as single dose measured after 4 hrs; format: ADME, organism-based, Canis lupus familiaris; settings: in vivo
Rattus norvegicus [7] = test: Induction of growth hormone level in Juvenile Sprague-Dawley rat blood at 0.2 mg/kg, po administered as single dose measured after 1 hr by ELISA method (reference value: 45.2+/-12.5 ng/mL); format: functional
[8] = Volume of distribution in male mouse at 1 mg/kg, iv administered as single dose measured after 4 hrs; format: ADME, organism-based; settings: in vivo
[9] = Metabolic stability in human liver microsome assessed as hepatic clearance at 1 uM measured upto 60 mins in presence of NADPH by LC-MS/MS analysis; format: ADME; settings: liver microsomes, read-out: CLH
[10] = Metabolic stability in monkey liver microsome assessed as half life at 1 uM measured upto 60 mins in presence of NADPH by LC-MS/MS analysis; format: ADME, Macaca mulatta; settings: rhesus monkey, liver microsomes
[11] = Plasma protein binding in human assessed as unbound fraction measured after 6 hrs by dialysis method; format: ADME, cell-free
Rattus norvegicus [12] = test: Induction of growth hormone level in adult Sprague-Dawley rat blood at 0.5 mg/kg, po administered as single dose measured after 40 mins by ELISA method (reference value: 14.4+/-6.9 ng/mL); format: functional
Rattus norvegicus [13] = test: Induction of growth hormone level in adult Sprague-Dawley rat blood at 0.5 mg/kg, po administered as single dose measured after 20 mins by ELISA method (reference value: 4.9+/-1.1 ng/mL); format: functional
Rattus norvegicus [14] = test: Induction of growth hormone level in 4 week-old female Sprague-Dawley rat assessed as increase in body weight at 2.5 mg/kg, po measured after 10 days; format: functional, organism-based; settings: time 10.0 day
Rattus norvegicus [15] = test: Induction of growth hormone level in Juvenile Sprague-Dawley rat blood at 0.2 mg/kg, po administered as single dose measured immediately by ELISA method (reference value: 28.5+/-8.7 ng/mL); format: functional
[16] = Genotoxicity in Salmonella typhimurium TA1535 by Ames test; format: toxicity; settings: salmonella enterica subsp. enterica serovar typhimurium
Rattus norvegicus [17] = test: Induction of growth hormone level in adult Sprague-Dawley rat blood by measuring AUC(0 to 40 mins) at 0.1 mg/kg, po administered as single dose by ELISA method (reference value: 7.0+/-1.7 ng/mL); format: functional, organism-based
Rattus norvegicus [18] = species on record: Rattus norvegicus; test: Induction of growth hormone level in 6 week-old Sprague-Dawley rat assessed as increase in body length measured after 10 days; format: functional, organism-based; settings: time 10.0 day
Rattus norvegicus [19] = test: In vivo agonist activity at GSHR in Sprague-Dawley rat assessed as increase in food consumption at 10 to 100 mg/kg, po administered once daily for 14 days; format: functional, organism-based; settings: dose 10-100 mg/kg, time 14.0 day
CHO = test: Agonist activity at dog GHSR expressed in CHO cells at maximum concentration incubated for 60 min by FLIPR assay relative to control; format: cell-based; settings: Canis lupus familiaris, filed as agonist
Rattus norvegicus [20] = test: Induction of growth hormone level in Juvenile Sprague-Dawley rat blood at 0.5 mg/kg, po administered as single dose measured after 40 mins by ELISA method (reference value: 40.1+/-11.0 ng/mL); format: functional
[21] = Agonist activity at dog GHSR expressed in CHO cells incubated for 60 min by FLIPR assay; format: cell-based; settings: 1 h
Rattus norvegicus [22] = test: Induction of growth hormone level in Juvenile Sprague-Dawley rat blood by measuring AUC(0 to 40 mins) at 0.1 mg/kg, po administered as single dose by ELISA method (reference value: 20.2+/-4.3 ng/mL); format: functional, organism-based; settings: time 4.0 hrs
Rattus norvegicus [23] = test: Induction of growth hormone level in 6 week-old female Sprague-Dawley rat assessed as increase in body weight at 2.5 mg/kg, po measured after 10 days; format: functional, organism-based; settings: time 10.0 day
[24] = AUC in male Sprague-Dawley rat at 2 mg/kg, po administered as single dose measured after 4 hrs; format: ADME, organism-based; settings: in vivo
Rattus norvegicus [25] = test: Induction of growth hormone level in 6 week-old male Sprague-Dawley rat assessed as increase in body length at 2.5 mg/kg, po measured after 10 days; format: functional, organism-based; settings: time 10.0 day
Rattus norvegicus [26] = test: Induction of growth hormone level in Juvenile Sprague-Dawley rat blood at 0.2 mg/kg, po administered as single dose measured after 40 mins by ELISA method (reference value: 40.1+/-11.0 ng/mL); format: functional
[27] = Agonist activity at monkey GHSR expressed in CHO cells incubated for 60 min by FLIPR assay; format: cell-based; settings: Macaca mulatta, 1 h

CC(C)(N)C(=O)N[C@H](COCc1ccccc1)C(=O)N1CCC2=NN(C3CC3)C(=O)[C@]2(Cc2ccccc2)C1
Activity [1]: Non-toxic | microsomal CLint at 1 µM [2]: 140 µL/min/mg | half-life at 1 µM [3]: 11.3 min | Tmax [4]: 15 min | Activity (Rattus norvegicus [5]): 43.5 ng/mL | half-life [6]: 56.4 min | Activity (Rattus norvegicus [7]): 45.9 ng/mL | Vd [8]: 2.94 L/kg | CLint scaled at 1 µM [9]: 127 mL/min/kg | half-life at 1 µM [10]: 3.1 min | fraction unbound at 6 h [11]: 0.695 | Activity (Rattus norvegicus [12]): 27.8 ng/mL | Activity (Rattus norvegicus [13]): 68.8 ng/mL | Activity (Rattus norvegicus [14]): Active | Activity (Rattus norvegicus [15]): 33.4 ng/mL | Activity [16]: Non-toxic | AUC (Rattus norvegicus [17]): 61 ng·h/mL | Activity (Rattus norvegicus [18]): Dose-dependent-effect | Activity (Rattus norvegicus [19]): Active | Activity (CHO): 124% | Activity (Rattus norvegicus [20]): 74.6 ng/mL | EC50 [21]: 0.043 nM | AUC (Rattus norvegicus [22]): 109 ng·h/mL | Activity (Rattus norvegicus [23]): Active | AUC at 4 h [24]: 188 ng·h/mL | Activity (Rattus norvegicus [25]): Active | Activity (Rattus norvegicus [26]): 66.5 ng/mL | EC50 [27]: 0.046 nM

— ChEMBL document CHEMBL6103654, “Design, Biological Characterization, and Discovery of Capromorelin Derivatives as Oral Growth Hormone Secretagogue Receptor Type 1a Agonist for the Treatment of Growth Hormone Deficiency” (J Med Chem, 2025)
